Experimental data taken from ChEMBL document CHEMBL1152842, “Synthesis, Raman, FT-IR, NMR spectroscopic data and antimicrobial activity of mixed aza-oxo-thia macrocyclic compounds” (2009).

Legend:
Type in all cases: functional
Staphylococcus aureus [1] = experiment: Antibacterial activity against Staphylococcus aureus ATCC 6538 at 1 ug after 24 hrs by disk diffusion method; conditions: ATCC 6538, 24 h, read-out: IZ
Escherichia coli [2] = experiment: Antibacterial activity against Escherichia coli ATCC 11230 at 1 ug after 24 hrs by disk diffusion method; conditions: ATCC 11230, 24 h, read-out: IZ
Listeria monocytogenes [3] = experiment: Antibacterial activity against Listeria monocytogenes ATCC 15313 at 1 ug after 24 hrs by disk diffusion method; conditions: ATCC 15313, 24 h, read-out: IZ
Klebsiella pneumoniae [4] = experiment: Antibacterial activity against Klebsiella pneumoniae UC57 at 1 ug after 24 hrs by disk diffusion method; conditions: read-out: IZ
Bacillus cereus [5] = experiment: Antibacterial activity against Bacillus cereus ATCC 7064 at 1 ug after 24 hrs by disk diffusion method; conditions: ATCC 7064, 24 h, read-out: IZ
Pseudomonas aeruginosa [6] = experiment: Antibacterial activity against Pseudomonas aeruginosa ATCC 27853 at 1 ug after 24 hrs by disk diffusion method; conditions: ATCC 27853, 24 h, read-out: IZ
Micrococcus luteus [7] = experiment: Antibacterial activity against Micrococcus luteus La 2971 at 1 ug after 24 hrs by disk diffusion method; conditions: read-out: IZ
Proteus vulgaris [8] = experiment: Antibacterial activity against Proteus vulgaris ATCC 8427 at 1 ug after 24 hrs by disk diffusion method; conditions: ATCC 8427, 24 h, read-out: IZ
[9] = test system: Mycolicibacterium smegmatis; experiment: Antibacterial activity against Mycobacterium smegmatis CCM 2067 at 1 ug after 24 hrs by disk diffusion method; conditions: CCM 2067, 24 h, read-out: IZ
Bacillus cereus [10] = experiment: Antibacterial activity against Bacillus cereus ATCC 7064 at 10 units after 24 hrs by disk diffusion method
Micrococcus luteus [11] = experiment: Antibacterial activity against Micrococcus luteus La 2971 at 10 units after 24 hrs by disk diffusion method
Proteus vulgaris [12] = experiment: Antibacterial activity against Proteus vulgaris ATCC 8427 at 10 units after 24 hrs by disk diffusion method
Klebsiella pneumoniae [13] = experiment: Antibacterial activity against Klebsiella pneumoniae UC57 at 10 units after 24 hrs by disk diffusion method
Staphylococcus aureus [14] = experiment: Antibacterial activity against Staphylococcus aureus ATCC 6538 at 10 units after 24 hrs by disk diffusion method
[15] = test system: Mycolicibacterium smegmatis; experiment: Antibacterial activity against Mycobacterium smegmatis CCM 2067 at 10 units after 24 hrs by disk diffusion method
Pseudomonas aeruginosa [16] = experiment: Antibacterial activity against Pseudomonas aeruginosa ATCC 27853 at 10 units after 24 hrs by disk diffusion method
Listeria monocytogenes [17] = experiment: Antibacterial activity against Listeria monocytogenes ATCC 15313 at 10 units after 24 hrs by disk diffusion method
Escherichia coli [18] = experiment: Antibacterial activity against Escherichia coli ATCC 11230 at 10 units after 24 hrs by disk diffusion method
Pseudomonas aeruginosa [19] = experiment: Antibacterial activity against Pseudomonas aeruginosa ATCC 27853 at 5 ug after 24 hrs by disk diffusion method; conditions: ATCC 27853, 24 h, read-out: IZ
Staphylococcus aureus [20] = experiment: Antibacterial activity against Staphylococcus aureus ATCC 6538 at 5 ug after 24 hrs by disk diffusion method; conditions: ATCC 6538, 24 h, read-out: IZ
Proteus vulgaris [21] = experiment: Antibacterial activity against Proteus vulgaris ATCC 8427 at 5 ug after 24 hrs by disk diffusion method; conditions: ATCC 8427, 24 h, read-out: IZ
Listeria monocytogenes [22] = experiment: Antibacterial activity against Listeria monocytogenes ATCC 15313 at 5 ug after 24 hrs by disk diffusion method; conditions: ATCC 15313, 24 h, read-out: IZ
[23] = test system: Mycolicibacterium smegmatis; experiment: Antibacterial activity against Mycobacterium smegmatis CCM 2067 at 5 ug after 24 hrs by disk diffusion method; conditions: CCM 2067, 24 h, read-out: IZ
Escherichia coli [24] = experiment: Antibacterial activity against Escherichia coli ATCC 11230 at 5 ug after 24 hrs by disk diffusion method; conditions: ATCC 11230, 24 h, read-out: IZ
Micrococcus luteus [25] = experiment: Antibacterial activity against Micrococcus luteus La 2971 at 5 ug after 24 hrs by disk diffusion method; conditions: read-out: IZ
Klebsiella pneumoniae [26] = experiment: Antibacterial activity against Klebsiella pneumoniae UC57 at 5 ug after 24 hrs by disk diffusion method; conditions: read-out: IZ
Bacillus cereus [27] = experiment: Antibacterial activity against Bacillus cereus ATCC 7064 at 5 ug after 24 hrs by disk diffusion method; conditions: ATCC 7064, 24 h, read-out: IZ

## CN[C@H](CC(C)C)C(=O)N[C@H]1C(=O)N[C@@H](CC(N)=O)C(=O)N[C@H]2C(=O)N[C@H]3C(=O)N[C@H](C(=O)N[C@H](C(=O)O)c4cc(O)cc(O)c4-c4cc3ccc4O)[C@H](O)c3ccc(c(Cl)c3)Oc3cc2cc(c3O[C@@H]2O[C@H](CO)[C@@H](O)[C@H](O)[C@H]2O[C@H]2C[C@](C)(N)[C@H](O)[C@H](C)O2)Oc2ccc(cc2Cl)[C@H]1O [VANCOMYCIN]
Staphylococcus aureus [1]
  zone of inhibition at 1 µg/disc: 13 mm
Escherichia coli [2]
  zone of inhibition at 1 µg/disc: 22 mm
Listeria monocytogenes [3]
  zone of inhibition at 1 µg/disc: 26 mm
Klebsiella pneumoniae [4]
  zone of inhibition at 1 µg/disc: 22 mm
Bacillus cereus [5]
  zone of inhibition at 1 µg/disc: 20 mm
Pseudomonas aeruginosa [6]
  zone of inhibition at 1 µg/disc: 18 mm
Micrococcus luteus [7]
  zone of inhibition at 1 µg/disc: 10 mm
Proteus vulgaris [8]
  zone of inhibition at 1 µg/disc: 34 mm
[9]
  zone of inhibition at 1 µg/disc: 20 mm

## CC1(C)S[C@@H]2[C@H](NC(=O)Cc3ccccc3)C(=O)N2[C@H]1C(=O)O [PENICILLIN G]
Bacillus cereus [10]
  inhibition zone (IZ): 10 mm
Micrococcus luteus [11]
  inhibition zone (IZ): 8 mm
Proteus vulgaris [12]
  inhibition zone (IZ): 36 mm
Klebsiella pneumoniae [13]
  inhibition zone (IZ): 18 mm
Staphylococcus aureus [14]
  inhibition zone (IZ): 13 mm
[15]
  inhibition zone (IZ): 15 mm
Pseudomonas aeruginosa [16]
  inhibition zone (IZ): 14 mm
Listeria monocytogenes [17]
  inhibition zone (IZ): 10 mm
Escherichia coli [18]
  inhibition zone (IZ): 18 mm

## CO/N=C(\C(=O)N[C@@H]1C(=O)N2C(C(=O)O)=C(COC(C)=O)CS[C@H]12)c1csc(N)n1 [CEFOTAXIME]
Staphylococcus aureus [1]
  zone of inhibition at 1 µg/disc: 12 mm
Escherichia coli [2]
  zone of inhibition at 1 µg/disc: 10 mm
Listeria monocytogenes [3]
  zone of inhibition at 1 µg/disc: 16 mm
Klebsiella pneumoniae [4]
  zone of inhibition at 1 µg/disc: 13 mm
Bacillus cereus [5]
  zone of inhibition at 1 µg/disc: 18 mm
Pseudomonas aeruginosa [6]
  zone of inhibition at 1 µg/disc: 14 mm
Micrococcus luteus [7]
  zone of inhibition at 1 µg/disc: 54 mm
Proteus vulgaris [8]
  zone of inhibition at 1 µg/disc: 32 mm
[9]
  zone of inhibition at 1 µg/disc: 11 mm

## CC1COc2c(N3CCN(C)CC3)c(F)cc3c(=O)c(C(=O)O)cn1c23 (stereo not given) [OFLOXACIN]
Pseudomonas aeruginosa [19]
  zone of inhibition at 5 µg/disc: 30 mm
Staphylococcus aureus [20]
  zone of inhibition at 5 µg/disc: 24 mm
Proteus vulgaris [21]
  zone of inhibition at 5 µg/disc: 28 mm
Listeria monocytogenes [22]
  zone of inhibition at 5 µg/disc: 30 mm
[23]
  zone of inhibition at 5 µg/disc: 32 mm
Escherichia coli [24]
  zone of inhibition at 5 µg/disc: 30 mm
Micrococcus luteus [25]
  zone of inhibition at 5 µg/disc: 44 mm
Klebsiella pneumoniae [26]
  zone of inhibition at 5 µg/disc: 28 mm
Bacillus cereus [27]
  zone of inhibition at 5 µg/disc: 28 mm

## CC1(C)S[C@@H]2[C@H](NC(=O)[C@H](N)c3ccccc3)C(=O)N2[C@H]1C(=O)O [AMPICILLIN]
Staphylococcus aureus [1]
  zone of inhibition at 1 µg/disc: 16 mm
Escherichia coli [2]
  zone of inhibition at 1 µg/disc: 12 mm
Listeria monocytogenes [3]
  zone of inhibition at 1 µg/disc: 12 mm
Klebsiella pneumoniae [4]
  zone of inhibition at 1 µg/disc: 14 mm
Bacillus cereus [5]
  zone of inhibition at 1 µg/disc: 16 mm
Pseudomonas aeruginosa [6]
  zone of inhibition at 1 µg/disc: 12 mm
Micrococcus luteus [7]
  zone of inhibition at 1 µg/disc: 10 mm
Proteus vulgaris [8]
  zone of inhibition at 1 µg/disc: 32 mm
[9]
  zone of inhibition at 1 µg/disc: 21 mm
